Values after ≈ are worked out from the molar mass of the structure shown. Where two headings read alike, the source gives them in different places. Non-standard residues stand in square brackets, D forms with d. Residues, ends and D or L forms follow the SMILES beside them. Dab(3S-OH) = NC[C@H](O)[C@H](N)C(=O)O; Phe(2-F) = N[C@@H](Cc1ccccc1F)C(=O)O; ΔZArg = N=C(N)NCC/C=C(\N)C(=O)O; dOrn = NCCC[C@@H](N)C(=O)O; Dab = NCC[C@H](N)C(=O)O
Assays:
[1] = test system: Enterobacter cloacae 10.72; details: Ambler class C carbapenem resistant; AmpC overexpressed + TEM-1 + OXA-1
Text: (§1) Reference strains are from the German Collection of Microorganisms and Cell Cultures (DSMZ), the American Type Culture Collection (ATCC), the National Collection of Type Cultures (NCTC), and the Medical and Molecular Microbiology, Faculty of Science and Medicine, University of Fribourg, Switzerland.

Escherichia coli MIN = details: Ambler class A carbapenemase; KPC-3 + OXA-9
Text: as §1

[2] = test system: Polymyxin B-resistant E. coli (2)
Text: as §1

CHO-K1 cells = details: 512 μM, 24 h; S9 medium negative control 0.7%
Procedure: The test was conducted by Eurofins Panlabs. […] At the end of the incubation period the cells were fixed, and their DNA was stained with Hoechst. The visualization and scoring of the cells was done using an automated fluorescence microscope coupled with proprietary automated image analysis software ([46]). The percent micronucleated cells was calculated.

in vitro [3] = details: liver microsomes, pH 7.4
Procedure: The microsome metabolic stability assays were performed by Cyprotex Discovery Ltd. (Macclesfield, UK). Pooled microsomes from different species (mouse, rat, dog, monkey, and human) were stored at −80°C prior to use. […] The final incubation volume was 500 μl. A minus cofactor control incubation was included for each compound tested, in which 0.1 M phosphate buffer (pH 7.4) was added instead of NADPH (minus NADPH). Two control compounds were included with each species. Each compound was incubated for 0, 5, 15, 30, and 45 min. The control (minus NADPH) was incubated for 45 min only. The reactions were stopped by transferring an aliquot of the mixture to 40% TCA in water containing an internal standard (NOSO-95216, 1 μM final concentration) for the test compounds, or methanol for the control compounds, at the desired time points. The termination plates were centrifuged at 2,500 rpm for 20 min at 4°C to precipitate the protein. Following protein precipitation, the test compound sample supernatants were diluted with analytical-grade water, whereas the control compounds were diluted with an internal standard (metoprolol) in water. The test compound samples were analyzed by LC-MS/MS.

in vitro [4] = details: cryopreserved pooled hepatocytes
Procedure: The hepatocyte metabolic stability assays were performed by Cyprotex Discovery Ltd. (Macclesfield, UK). This assay utilizes cryopreserved pooled hepatocytes from different species (mouse, rat, dog, monkey, and human), stored in liquid nitrogen prior to use. […] The final incubation volume was 500 μl. Two control compounds were included with each species alongside an appropriate vehicle control. […] The termination plates were centrifuged at 2,500 rpm at 4°C for 30 min to precipitate the protein. Following protein precipitation, the test compound sample supernatants were diluted with analytical-grade water, whereas the control compounds were diluted with an internal standard (metoprolol) in water. The test compound samples were analyzed by liquid chromatography-tandem mass spectrometry (LC-MS/MS).

in vitro [5] = details: plasma, pH 7.4
Procedure: The final incubation volume was 200 μl. All incubations were performed singularly for each compound at each time point. A vehicle control incubation was included using either water or DMSO, along with a control compound known to be metabolized specifically by each species. Each compound was incubated for 0, 15, 30, 60, and 120 min at 37°C. The reactions were stopped by the addition of 40% TCA in water containing an internal standard (NOSO-95216, 1 μM final concentration) for the test compounds, or methanol for the control compounds, at the appropriate time points. The vehicle control incubation was incubated for 120 min only. The termination plates were centrifuged at 3,000 rpm for 45 min at 4°C to precipitate the protein. Following protein precipitation, the test compound sample supernatants were diluted with analytical-grade water, whereas the control compounds were diluted with an internal standard (metoprolol) in water. The test compound samples were analyzed by LC-MS/MS.

in vitro [6] = details: plasma (EDTA anticoagulant), pH 7.4
Procedure: The […] were performed by Cyprotex Discovery Ltd. (Macclesfield, UK). […] The experiment was performed using equilibrium dialysis (RED device) with the two compartments separated by a semipermeable membrane. Buffer (pH 7.4) was added to one side of the membrane and the plasma solution to the other. After equilibration (4 h), samples were taken from both sides of the membrane. Calibration standards were prepared in plasma and buffer. All incubations were performed in triplicate. A control compound was included in each experiment. Incubation of the control compound samples was terminated with acetonitrile containing an internal standard (metoprolol). Incubation of the test compound samples was terminated with 40% TCA in water containing in internal standard (NOSO-95216; 1 μM final concentration). All samples were centrifuged and further diluted with water prior to analysis. The solutions for each batch of control compounds were combined into two groups (protein free and protein containing) and cassette analyzed by LC-MS/MS using two sets of calibration standards for protein-free (seven points) and protein-containing solutions (seven points).

E. coli EN122 = details: ESBL, clinical isolate
Procedure: (§2) MIC values were determined using Clinical and Laboratory Standards Institute (CLSI) broth microdilution methodology, colony direct suspension, as described in CLSI document M07-A10 ([42]).

in vitro [7] = details: human, cryopreserved pooled hepatocytes
[8] = target: Nav 1.5 human sodium ion channel (Homo sapiens, UniProt Q14524); test: cell-based
Procedure: Inhibition of the Nav 1.5 human sodium ion channel was determined by Eurofins Panlabs in HEK-293 cells stably transfected with human Nav1.5 cDNA (type V voltage-gated sodium channel alpha subunit, GenBank accession number NM_000335) using IonWorks Quattro automated whole-cell patch clamp electrophysiology. […] In this method, the voltage protocol is applied prior to compound addition (Pre), the compounds are added and incubated for 600 s at room temperature, and then the voltage protocol is applied a final time (Post) on the IonWorks Quattro.

Escherichia coli PSP = details: Ambler class A carbapenemase; KPC-2 + TEM-1 + OXA-1
Text: as §1

[9] = test system: Klebsiella pneumoniae LAM; details: Ambler class B carbapenemase; NDM-4 + SHV-11 + CTX-M15
Text: as §1

Nav 1.5 human sodium ion channel, sequence (Q14524 1-2015 isoform Q14524-2): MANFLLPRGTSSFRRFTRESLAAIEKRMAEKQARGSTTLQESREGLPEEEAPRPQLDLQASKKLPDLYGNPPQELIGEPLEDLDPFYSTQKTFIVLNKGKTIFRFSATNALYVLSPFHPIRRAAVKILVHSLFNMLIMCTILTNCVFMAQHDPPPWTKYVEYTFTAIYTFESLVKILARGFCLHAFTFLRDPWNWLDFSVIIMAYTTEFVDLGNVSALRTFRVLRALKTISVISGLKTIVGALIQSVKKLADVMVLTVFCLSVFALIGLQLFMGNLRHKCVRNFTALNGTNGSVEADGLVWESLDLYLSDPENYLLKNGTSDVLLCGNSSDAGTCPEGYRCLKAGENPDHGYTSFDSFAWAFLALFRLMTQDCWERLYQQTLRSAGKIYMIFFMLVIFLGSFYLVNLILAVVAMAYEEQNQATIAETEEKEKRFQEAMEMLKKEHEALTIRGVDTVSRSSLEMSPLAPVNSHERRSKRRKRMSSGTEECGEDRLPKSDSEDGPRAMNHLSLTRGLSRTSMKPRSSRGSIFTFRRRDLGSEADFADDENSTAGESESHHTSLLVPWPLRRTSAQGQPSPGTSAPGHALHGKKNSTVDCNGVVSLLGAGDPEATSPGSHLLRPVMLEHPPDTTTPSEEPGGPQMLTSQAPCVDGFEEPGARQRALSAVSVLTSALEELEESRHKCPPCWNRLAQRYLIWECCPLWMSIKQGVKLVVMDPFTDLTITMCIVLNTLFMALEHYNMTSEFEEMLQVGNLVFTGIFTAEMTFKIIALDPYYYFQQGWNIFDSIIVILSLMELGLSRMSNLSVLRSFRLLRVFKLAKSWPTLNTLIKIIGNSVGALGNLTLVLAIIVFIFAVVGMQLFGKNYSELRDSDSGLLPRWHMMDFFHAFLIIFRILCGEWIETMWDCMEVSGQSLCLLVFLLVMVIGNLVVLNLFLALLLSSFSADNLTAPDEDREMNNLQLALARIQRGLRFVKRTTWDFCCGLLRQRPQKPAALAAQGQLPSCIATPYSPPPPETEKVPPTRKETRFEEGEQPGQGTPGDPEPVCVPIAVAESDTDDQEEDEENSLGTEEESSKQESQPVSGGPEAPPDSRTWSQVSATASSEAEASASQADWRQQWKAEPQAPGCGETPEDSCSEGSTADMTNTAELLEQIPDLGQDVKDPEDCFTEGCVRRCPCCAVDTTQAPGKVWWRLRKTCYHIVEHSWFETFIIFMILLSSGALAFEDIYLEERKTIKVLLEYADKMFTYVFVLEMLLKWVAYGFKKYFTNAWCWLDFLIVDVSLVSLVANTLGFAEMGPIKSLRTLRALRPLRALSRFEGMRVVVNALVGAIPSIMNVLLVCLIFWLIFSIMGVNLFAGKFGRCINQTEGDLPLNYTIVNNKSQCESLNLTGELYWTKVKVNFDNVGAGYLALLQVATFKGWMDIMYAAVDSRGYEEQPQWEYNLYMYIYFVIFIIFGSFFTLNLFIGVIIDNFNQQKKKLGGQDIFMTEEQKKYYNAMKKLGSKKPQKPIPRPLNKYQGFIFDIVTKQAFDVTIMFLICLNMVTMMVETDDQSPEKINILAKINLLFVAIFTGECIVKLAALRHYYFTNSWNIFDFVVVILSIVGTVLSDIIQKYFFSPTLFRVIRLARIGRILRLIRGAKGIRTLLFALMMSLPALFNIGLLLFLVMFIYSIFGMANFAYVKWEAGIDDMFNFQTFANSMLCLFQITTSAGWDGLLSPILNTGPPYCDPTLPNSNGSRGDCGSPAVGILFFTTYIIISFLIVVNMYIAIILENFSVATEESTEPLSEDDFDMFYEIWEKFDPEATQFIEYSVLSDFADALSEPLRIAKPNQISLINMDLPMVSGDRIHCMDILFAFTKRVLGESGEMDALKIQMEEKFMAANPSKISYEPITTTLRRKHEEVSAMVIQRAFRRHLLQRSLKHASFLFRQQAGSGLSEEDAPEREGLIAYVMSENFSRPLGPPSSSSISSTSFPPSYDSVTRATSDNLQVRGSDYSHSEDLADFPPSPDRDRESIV
Procedure for E. coli UTI89: as §2

## N=C(N)NCC/C=C(\NC(=O)[C@H](CCCCN)NC(=O)[C@H](Cc1ccccc1F)NC(=O)[C@@H]1CCCN1C(=O)[C@@H](CCCN)NC(=O)CNC(=O)[C@H](CCN)NC(=O)[C@@H](NC(=O)[C@@H](N)CCCCN)[C@@H](O)CN)C(=O)O [NOSO-502] (H-K[Dab(3S-OH)][Dab]G[dOrn]P[Phe(2-F)]K[ΔZArg]-OH)
[1]
  MIC: 1 µg/mL
Escherichia coli MIN
  MIC: 4 µg/mL
[2]; Polymyxin B-resistant (2)
  MIC range: 4 to 8 µg/mL
CHO-K1 cells
  cells with micronuclei: 0.61%
In vitro [3]; dog
  half-life at 1 μM: 1.68 h
In vitro [3]; human
  half-life at 1 μM: 2.42 h
In vitro [3]; monkey
  half-life at 1 μM: 2.45 h
In vitro [3]; mouse
  half-life at 1 μM: 1.93 h
In vitro [3]; rat
  half-life at 1 μM: 2.15 h
In vitro [4]; dog
  half-life at 1 μM: 8.05 h
In vitro [4]; monkey
  half-life at 1 μM: 11.6 h
In vitro [4]; mouse
  half-life at 1 μM: 3.2 h
In vitro [4]; rat
  half-life at 1 μM: 3.23 h
In vitro [5]; dog
  half-life at 10 μM: 2.63 h
In vitro [5]; human
  half-life at 10 μM: 1.32 h
In vitro [5]; monkey
  half-life at 10 μM: 1.6 h
In vitro [5]; mouse
  half-life at 10 μM: 0.9 h
In vitro [5]; rat
  half-life at 10 μM: 0.6 h
In vitro [6]; dog
  fraction unbound at 4 h, 2 μM: 0.176
In vitro [6]; human
  fraction unbound at 4 h, 2 μM: 0.187
In vitro [6]; mouse
  fraction unbound at 4 h, 2 μM: 0.198
In vitro [6]; rat
  fraction unbound at 4 h, 2 μM: 0.205
E. coli EN122
  MIC: 4 µg/mL (≈ 3.71 µM)
E. coli UTI89
  MIC: 4 µg/mL (≈ 3.71 µM)
In vitro [7]
  half-life at 1 μM: 5.48 h
[8]
  IC50: > 512 µM

## polymyxin B [PMB]
[1]
  MIC: 0.5 µg/mL
Escherichia coli MIN
  MIC: 0.5 µg/mL
Escherichia coli PSP
  MIC: 0.5 µg/mL
[9]
  MIC: 0.5 µg/mL
[2]; 2 polymyxin B-resistant isolates
  MIC range: 4 to 32 µg/mL

From publication PMC6125496 (Antimicrobial Agents and Chemotherapy, 2018)
